System: keratinocyte cells
Experiment: Proliferation of keratinocyte (cell count)
Format: cell-based
Conditions: for effect on proliferation of keratinocyte: cell count after 2-12 days of cultivation, FIG. 1
Procedure: The keratinocyte cells were respectively cultivated with the following groups of agents: (a) 0.7 μg/1 ml, 7 μg/ml, 70 μg/ml and 700 μg/ml of bismuth subgallate; (b) 0.1 μg/ml, 1 μg/ml, 10 μg/ml and […]; and (c) 0.7 μg/ml bismuth subgallate in combination with 0.1 μg/ml borneol, 7 μg/ml bismuth subgallate in combination with 1 μg/ml borneol, 70 μg/ml bismuth subgallate in combination with 10 μg/ml borneol and 700 μg/ml bismuth subgallate in combination with 100 μg/ml borneol. After the cells were cultivated after 2, 4, 6, 8, 10 and 12 days respectively, their count was noted to evaluate the proliferation of them.

Row | Compound | effect on proliferation of keratinocyte | keratinocyte cell number relative to control (70 μg/ml bismuth subgallate, twelfth day)
1 | CC1(C)C2CCC1(C)C(O)C2 (stereo not drawn) [borneol] | no significant effect | –
2 | bismuth subgallate | significant increase in the proliferation of keratinocyte | up to two times of that of control

From patent publication US20030158255A1, “Use of bismuth subgallate in prevention and/or reduction of skin deterioration” (priority 2002, published 2003)
